Source: publication PMC9782539, “Synthesis, Characterization and Biological Evaluation of Benzothiazole–Isoquinoline Derivative” (Molecules, 2022)

What was measured:
MAO–A = target: T1, MAO–A (Rattus norvegicus, UniProt P21396); test: MAO–A inhibitory activity (enzyme pre-incubated with pargyline); format: biochemical
T1 construct: the obtained SD rat liver mitochondrial concentrate was the experimental monoamine oxidase stock solution; from tissue; host or cells: male SD rat liver mitochondria
T1 sequence (P21396 1-526): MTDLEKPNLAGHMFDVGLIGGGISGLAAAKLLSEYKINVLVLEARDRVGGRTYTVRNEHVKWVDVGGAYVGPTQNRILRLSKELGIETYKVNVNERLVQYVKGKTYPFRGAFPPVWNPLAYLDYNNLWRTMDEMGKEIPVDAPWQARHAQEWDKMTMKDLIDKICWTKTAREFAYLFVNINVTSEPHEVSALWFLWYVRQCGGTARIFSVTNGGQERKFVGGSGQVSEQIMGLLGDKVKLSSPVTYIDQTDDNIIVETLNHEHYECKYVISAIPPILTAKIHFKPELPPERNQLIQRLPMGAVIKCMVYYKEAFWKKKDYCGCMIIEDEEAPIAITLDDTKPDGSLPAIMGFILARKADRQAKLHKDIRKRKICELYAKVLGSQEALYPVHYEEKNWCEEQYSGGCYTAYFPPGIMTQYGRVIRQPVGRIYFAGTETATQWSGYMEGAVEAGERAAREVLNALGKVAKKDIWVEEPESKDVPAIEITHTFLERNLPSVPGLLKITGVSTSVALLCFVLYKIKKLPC
Experimental: (§1) Male SD rats were sacrificed by decapitation, operated on ice, their livers were removed, and the liver surface was washed with precooled phosphate buffer. The liver was cut into pieces, and after washing (using PBS), 20 mL of 0.3 M sucrose buffer was added for homogenization. After fully homogenized, it was balanced by a tray balance. Low–temperature differential centrifugation was performed, and the obtained SD rat liver mitochondrial concentrate was the experimental monoamine oxidase stock solution, and was stored in a −80 °C refrigerator.
(§2) Added 25 µL of enzyme dilution solution and 25 µL of test derivatives (control group plus rasagiline, blank group plus 10% DMSO) to 96–well plate, incubated at 37 °C for 1 h, then 120 µL of substrate was added, 80 µL of chromogenic solution was added, incubated at 37 °C for 30 min, and its absorbance measured at 490 nm. In addition, in order to exclude the influence of protein, a protein control group was established, only the enzyme dilution was added, and the rest were replaced with PBS, and the absorbance value was detected at a wavelength of 490 nm. The inhibition rate of each concentration was substituted into the calculation software GraphPad Prism 8 to calculate the IC50 value.
(§3) The inhibition rate of each concentration was substituted into the calculation software GraphPad Prism 8 to calculate the IC50 value.

MAO = MAO inhibitory activity (Holts method, rat liver mitochondrial enzyme); format: biochemical
Experimental: as §1, §2

Cytotoxicity, MTT method = format: cell-based; details: mouse, L929 cells, 0–100 μM, read-out: cell viability (MTT)
Experimental: L929 (Shanghai Cell Bank, Chinese Academy of Sciences) cells were cultured in 10% fetal bovine serum: penicillin–streptomycin solution: MEM mixed medium with serum–free medium (10:1:90), and subcultured in a 5% carbon dioxide cell incubator at 37 °C, and the medium changed every other day.
In this experiment, L929 cells in the logarithmic growth phase were selected, and the cell density was adjusted to 2 × 10^4 cells per well. The cells were seeded in 96–well plates, and the 96–well plates seeded with cells were cultured in a 37 °C 5% carbon dioxide cell incubator. After 24 h, different concentrations of the test compound medium (6.5, 12.5, 25, 50, 100 μM) were added, and the blank group was added with drug–free medium, shaken gently, and placed at 37 °C 5%. The cells were cultured in a carbon dioxide cell incubator for 24 h, and each concentration was replicated 6 times. After 24 h, 20 μL of […] MTT solution (prepared in PBS with pH = 7.6) was added in the dark, and cultured in the cell incubator for another 4 h. After 4 h, the 96–well plate was taken out and the original medium was discarded. Added 160 μL DMSO, put it on a shaker and mixed well for about 10 min, used a microplate reader to measure its absorbance at 490 nm, recorded the results and analyzed.

BuChE = BuChE (Homo sapiens, UniProt P06276); test: biochemical; format: biochemical
Chain of BuChE (P06276 29-602): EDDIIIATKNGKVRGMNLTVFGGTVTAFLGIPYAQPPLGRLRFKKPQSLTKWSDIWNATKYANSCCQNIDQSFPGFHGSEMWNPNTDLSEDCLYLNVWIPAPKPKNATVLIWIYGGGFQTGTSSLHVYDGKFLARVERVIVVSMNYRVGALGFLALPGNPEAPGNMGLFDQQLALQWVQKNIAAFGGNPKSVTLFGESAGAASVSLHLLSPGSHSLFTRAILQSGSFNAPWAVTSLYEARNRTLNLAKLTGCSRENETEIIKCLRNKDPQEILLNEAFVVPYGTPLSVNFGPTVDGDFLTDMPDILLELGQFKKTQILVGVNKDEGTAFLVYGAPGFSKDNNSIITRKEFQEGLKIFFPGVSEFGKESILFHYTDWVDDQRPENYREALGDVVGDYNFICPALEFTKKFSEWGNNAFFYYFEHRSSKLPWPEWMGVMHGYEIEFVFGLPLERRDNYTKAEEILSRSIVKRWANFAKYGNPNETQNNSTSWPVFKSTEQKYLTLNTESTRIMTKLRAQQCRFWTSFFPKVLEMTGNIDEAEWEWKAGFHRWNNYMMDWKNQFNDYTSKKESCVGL
Experimental: (§4) Each concentration was tested three times in parallel, and 96 empty plates were taken, and 20 µL of the test sample or positive drug (10% DMSO was added to the blank control), 40 µL of AChE or BuChE (0.2 U/mL) and 100 µL of DTNB (0.001 mol/L) were added in turn, mixed well and incubated in a constant temperature water bath at 37 °C for 15 min.

AChE = AChE (Homo sapiens, UniProt P22303); test: biochemical; format: biochemical
Chain of AChE (P22303 32-614): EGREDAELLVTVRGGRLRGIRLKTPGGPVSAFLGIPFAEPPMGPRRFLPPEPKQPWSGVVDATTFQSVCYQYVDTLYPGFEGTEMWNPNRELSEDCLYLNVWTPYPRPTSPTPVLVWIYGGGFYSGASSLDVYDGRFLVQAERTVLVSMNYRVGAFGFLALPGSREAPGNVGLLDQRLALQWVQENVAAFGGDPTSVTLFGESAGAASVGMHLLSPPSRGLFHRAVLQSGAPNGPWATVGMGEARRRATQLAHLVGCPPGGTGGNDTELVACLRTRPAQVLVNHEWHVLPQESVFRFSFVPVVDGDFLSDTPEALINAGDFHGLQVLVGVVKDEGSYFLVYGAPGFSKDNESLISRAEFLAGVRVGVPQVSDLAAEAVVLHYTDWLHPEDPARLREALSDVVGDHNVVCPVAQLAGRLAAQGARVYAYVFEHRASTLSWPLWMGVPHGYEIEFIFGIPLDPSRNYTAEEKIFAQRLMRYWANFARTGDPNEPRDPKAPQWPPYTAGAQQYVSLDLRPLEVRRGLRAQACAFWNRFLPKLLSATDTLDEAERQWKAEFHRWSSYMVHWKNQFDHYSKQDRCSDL
Experimental: as §4

MAO–B = target: T2, MAO–B (Rattus norvegicus, UniProt P19643); test: MAO–B inhibitory activity (enzyme pre-incubated with chlorgiline); format: biochemical
T2 construct: the obtained SD rat liver mitochondrial concentrate was the experimental monoamine oxidase stock solution; from tissue; host or cells: male SD rat liver mitochondria
T2 sequence (P19643 1-520): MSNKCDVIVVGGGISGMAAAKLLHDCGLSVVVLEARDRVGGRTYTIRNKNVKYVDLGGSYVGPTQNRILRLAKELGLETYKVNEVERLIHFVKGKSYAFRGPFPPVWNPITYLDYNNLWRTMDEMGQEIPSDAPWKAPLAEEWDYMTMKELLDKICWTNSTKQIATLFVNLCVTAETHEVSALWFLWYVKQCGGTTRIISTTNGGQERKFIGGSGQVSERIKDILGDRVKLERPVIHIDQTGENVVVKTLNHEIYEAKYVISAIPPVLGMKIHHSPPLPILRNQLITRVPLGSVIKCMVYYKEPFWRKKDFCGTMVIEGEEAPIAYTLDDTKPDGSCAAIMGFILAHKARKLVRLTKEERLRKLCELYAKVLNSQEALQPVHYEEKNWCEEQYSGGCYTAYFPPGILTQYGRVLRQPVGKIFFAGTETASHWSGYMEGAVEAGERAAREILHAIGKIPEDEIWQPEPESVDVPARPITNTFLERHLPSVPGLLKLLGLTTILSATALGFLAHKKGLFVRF
Experimental: as §1, §2, §3

ICR male mice = test: Forced swimming test (FST); format: in vivo; details: i.p., 30 mg/kg; for Duration of Immobility: 30 min after administration, mean ± SEM (n = 8); for DID (%) percentage decrease in immobility duration: vs control
Experimental: Pharmacological experiments of antidepressant activity used FST in mice, fluoxetine hydrochloride was used as a positive control, and the vehicle solvent PFG–400 was used as a blank control. The experiment used ICR male mice (20 ± 2 g). Six benzothiazole–quinoline derivatives were dissolved in polyethylene glycol–400, and 30 min after administration (i.p., 30 mg/kg), the mice were each placed in a glass cylinder, recording the time of immobility. Duration of immobility outcomes is expressed as mean ± SEM. The t-test was used to make comparisons between groups.

## O=C(CN1CCc2ccccc2[C@H]1c1ccccc1)Nc1nc2cc(Cl)ccc2s1 [Compound 4b, (R)–N–(5–chlorobenzo[d]thiazol–2–yl)–2–(1–phenyl–3,4–dihydroisoquinolin–2(1H)–yl)acetamide]
MAO–A
  Inhibition Rate (%) MAO–A: 3.01%
MAO
  IC50: 38.8 ± 3.76 µM
  Inhibition Rate of MAO (%): 39.27%
Cytotoxicity, MTT method
  viability at 24 h: > 90%
BuChE
  IC50: 17.6 ± 1.78 µM
  Inhibition Rate (%) BuChE: 69.44%
AChE
  IC50: > 150 µM
  Inhibition Rate (%) AChE: 4.42%
MAO–B
  IC50: 40.8 ± 2.67 µM
  Inhibition Rate (%) MAO–B: 39.15%
ICR male mice
  Duration of Immobility: 85.7 ± 8.1 s
  DID (%) percentage decrease in immobility duration: 51.98%

## O=C(CN1CCc2ccccc2[C@H]1c1ccccc1)Nc1nc2ccc(Cl)cc2s1 [Compound 4c, (R)–N–(6–chlorobenzo[d]thiazol–2–yl)–2–(1–phenyl–3,4–dihydroisoquinolin–2(1H)–yl)acetamide]
MAO–A
  Inhibition Rate (%) MAO–A: 12.03%
MAO
  IC50: 45.9 ± 2.66 µM
  Inhibition Rate of MAO (%): 21.59%
Cytotoxicity, MTT method
  viability at 24 h: > 90%
BuChE
  IC50: > 150 µM
  Inhibition Rate (%) BuChE: 68.80%
AChE
  IC50: > 150 µM
  Inhibition Rate (%) AChE: 1.10%
MAO–B
  IC50: 9.13 ± 4.17 µM
  Inhibition Rate (%) MAO–B: 48.45%
ICR male mice
  Duration of Immobility: 77.0 ± 18.3 s
  DID (%) percentage decrease in immobility duration: 56.84%

## O=C(CN1CCc2ccccc2[C@H]1c1ccccc1)Nc1nc2c(Br)cccc2s1 [Compound 4d, (R)–N–(4–bromobenzo[d]thiazol–2–yl)–2–(1–phenyl–3,4–dihydroisoquinolin–2(1H)–yl)acetamide]
MAO–A
  Inhibition Rate (%) MAO–A: 18.05%
MAO
  IC50: 64.8 ± 4.2 µM
  Inhibition Rate of MAO (%): 43.37%
Cytotoxicity, MTT method
  viability at 24 h: > 90%
BuChE
  IC50: 14.6 ± 5.81 µM
  Inhibition Rate (%) BuChE: 77.76%
AChE
  IC50: > 150 µM
  Inhibition Rate (%) AChE: 0.55%
MAO–B
  IC50: 3.26 ± 2.78 µM
  Inhibition Rate (%) MAO–B: 46.00%
ICR male mice
  Duration of Immobility: 62.3 ± 14.0 s
  DID (%) percentage decrease in immobility duration: 65.06%

## O=C(CN1CCc2ccccc2[C@H]1c1ccccc1)Nc1nc2ccc(Br)cc2s1 [Compound 4f, (R)–N–(6–bromobenzo[d]thiazol–2–yl)–2–(1–phenyl–3,4–dihydroisoquinolin–2(1H)–yl)acetamide]
MAO–A
  Inhibition Rate (%) MAO–A: 15.04%
MAO
  IC50: 41.8 ± 2.94 µM
  Inhibition Rate of MAO (%): 24.15%
Cytotoxicity, MTT method
  viability at 24 h: > 90%
BuChE
  IC50: > 150 µM
  Inhibition Rate (%) BuChE: 32.32%
AChE
  IC50: > 150 µM
  Inhibition Rate (%) AChE: 1.10%
MAO–B
  IC50: 47.6 ± 1.82 µM
  Inhibition Rate (%) MAO–B: 46.49%
ICR male mice
  Duration of Immobility: 71.7 ± 4.9 s
  DID (%) percentage decrease in immobility duration: 59.83%

## Cc1cccc2sc(NC(=O)CN3CCc4ccccc4[C@H]3c3ccccc3)nc12 [Compound 4g, (R)–N–(4–methylbenzo[d]thiazol–2–yl)–2–(1–phenyl–3,4–dihydroisoquinolin–2(1H)–yl)acetamide]
MAO–A
  Inhibition Rate (%) MAO–A: 9.03%
MAO
  IC50: 14.8 ± 5.45 µM
  Inhibition Rate of MAO (%): 57.11%
Cytotoxicity, MTT method
  viability at 24 h: > 90%
BuChE
  IC50: 30.3 ± 4.59 µM
  Inhibition Rate (%) BuChE: 72.64%
AChE
  IC50: > 150 µM
  Inhibition Rate (%) AChE: 1.10%
MAO–B
  IC50: 12.1 ± 3.47 µM
  Inhibition Rate (%) MAO–B: 51.39%
ICR male mice
  Duration of Immobility: 69.0 ± 15.7 s
  DID (%) percentage decrease in immobility duration: 61.32%

## Cc1ccc2nc(NC(=O)CN3CCc4ccccc4[C@H]3c3ccccc3)sc2c1 [Compound 4i, (R)–N–(6–methylbenzo[d]thiazol–2–yl)–2–(1–phenyl–3,4–dihydroisoquinolin–2(1H)–yl)acetamide]
MAO–A
  Inhibition Rate (%) MAO–A: 2.51%
MAO
  IC50: 18.5 ± 1.69 µM
  Inhibition Rate of MAO (%): 26.46%
Cytotoxicity, MTT method
  viability at 24 h: > 90%
BuChE
  IC50: 19.2 ± 2.72 µM
  Inhibition Rate (%) BuChE: 47.68%
AChE
  IC50: > 150 µM
  Inhibition Rate (%) AChE: 2.21%
MAO–B
  IC50: 16.5 ± 3.59 µM
  Inhibition Rate (%) MAO–B: 61.17%
ICR male mice
  Duration of Immobility: 83.8 ± 13.6 s
  DID (%) percentage decrease in immobility duration: 53.05%

## O=C(CN1CCc2ccccc2[C@H]1c1ccccc1)Nc1nc2c(Br)cc(Br)cc2s1 [Compound 4p, (R)–N–(4,6–dibromobenzo[d]thiazol–2–yl)–2–(1–phenyl–3,4–dihydroisoquinolin–2(1H)–yl)acetamide]
MAO
  IC50: 59.3 ± 3.22 µM
  Inhibition Rate of MAO (%): 19.80%
BuChE
  IC50: 27.1 ± 1.73 µM
  Inhibition Rate (%) BuChE: 43.84%
AChE
  IC50: > 150 µM
  Inhibition Rate (%) AChE: 6.63%

## CNCCC(Oc1ccc(C(F)(F)F)cc1)c1ccccc1 (stereo not shown) [Fluoxetine, reference compound]
ICR male mice
  Duration of Immobility: 31.7 ± 7.7 s
  DID (%) percentage decrease in immobility duration: 82.20%
ICR male mice; listed as fluoxetine
  DID (%) percentage decrease in immobility duration: 82.2%

## C#CCN(C)Cc1ccccc1 [Pargyline, reference compound]
MAO–B
  Inhibition Rate (%) MAO–B: 93.47%
